A word on the IC50: it is the concentration that inhibits the measured activity by half.

This is an account of results in ChEMBL document CHEMBL5126669, “Discovery of 5,7-Dihydro-6H-pyrrolo[2,3-d]pyrimidin-6-ones as Highly Selective CDK2 Inhibitors” (ACS Med Chem Lett, 2022).

Data set [1] is filed under the species Homo sapiens. Put plainly: Selectivity ratio of IC50 for inhibition of CDK1/cyclin B (unknown origin) to IC50 for inhibition recombinant human N-terminal GST-tagged full-length CDK2/Flag-tagged cyclinE1 expressed in baculovirus expression system.
Data set [2] has as its target Cyclin-dependent kinase 2/cyclin E1 (Homo sapiens, UniProt P24941). As to the kind of experiment: Inhibition of recombinant human N-terminal GST-tagged full-length CDK2/Flag-tagged cyclinE1 expressed in baculovirus expression system using eIF4E-binding protein-1 peptide as substrate incubated for 1 hr in presence of ATP by HTRF assay. A general note: In TR-FRET formats the signal depends on donor and acceptor labels being close together.

The species named for data set [3] is Homo sapiens. As to the kind of experiment: Selectivity ratio of IC50 for inhibition of CDK6/cyclin D1 (unknown origin) to IC50 for inhibition recombinant human N-terminal GST-tagged full-length CDK2/Flag-tagged cyclinE1 expressed in baculovirus expression system.
For data set [4], the species on record is Homo sapiens. As to the kind of experiment: Selectivity ratio of IC50 for inhibition of CDK4/cyclin D1 (unknown origin) to IC50 for inhibition recombinant human N-terminal GST-tagged full-length CDK2/Flag-tagged cyclinE1 expressed in baculovirus expression system.
A short description of data set [5]: Intrinsic clearance in human liver microsomes at 1 uM measured upto 30 mins by LC/MS analysis. The following applies: read-out: CLH (converted). The format is ADME, Microsome.
Data set [6] addresses Cyclin-dependent kinase 2 (Homo sapiens, UniProt P24941). As to the kind of experiment: Inhibition of CDK2 in human COV318 cells incubated for overnight in presence of human whole blood by HTRF assay. The format is cell-based.
The species entered for data set [7] is Homo sapiens. Put plainly: Selectivity ratio of IC50 for inhibition of CDK9 (unknown origin) to IC50 for inhibition recombinant human N-terminal GST-tagged full-length CDK2/Flag-tagged cyclinE1 expressed in baculovirus expression system. The note with it: tested as the 2H-labelled form.
Data set [8] is filed under the species Homo sapiens. Put plainly: Selectivity ratio of IC50 for inhibition of CDK1 (unknown origin) to IC50 for inhibition recombinant human N-terminal GST-tagged full-length CDK2/Flag-tagged cyclinE1 expressed in baculovirus expression system. The note with it: tested as the 2H-labelled form.
For data set [9], the species on record is Homo sapiens. As to the kind of experiment: Selectivity ratio of IC50 for inhibition of CDK6 (unknown origin) to IC50 for inhibition recombinant human N-terminal GST-tagged full-length CDK2/Flag-tagged cyclinE1 expressed in baculovirus expression system. The note with it: tested as the 2H-labelled form.
Data set [10] is filed under the species Homo sapiens. As to the kind of experiment: Selectivity ratio of IC50 for inhibition of CDK7 (unknown origin) to IC50 for inhibition recombinant human N-terminal GST-tagged full-length CDK2/Flag-tagged cyclinE1 expressed in baculovirus expression system. The note with it: tested as the 2H-labelled form.
Data set [11] is filed under the species Homo sapiens. Put plainly: Selectivity ratio of IC50 for inhibition of CDK4 (unknown origin) to IC50 for inhibition recombinant human N-terminal GST-tagged full-length CDK2/Flag-tagged cyclinE1 expressed in baculovirus expression system. The following applies: tested as the 2H-labelled form.
Data set [12] is filed under the species Homo sapiens. As to the kind of experiment: Selectivity ratio of IC50 for inhibition of CDK1 in human OVCAR3 cells to IC50 for inhibition of CDK2 in human COV318 cells. The format is cell-based.
Data set [13] in a line: Inhibition of CDK1/cyclin B (unknown origin) in presence of ATP. Details: species or system Homo sapiens.
The target of data set [14] is Cyclin-dependent kinase 1 (Homo sapiens, UniProt P06493). As to the kind of experiment: Inhibition of CDK1 in human OVCAR3 cells incubated for 30 mins in presence of pNPM T199 by western blot analysis. The format is cell-based, OVCAR-3. (In western blotting, separated proteins are transferred to a membrane and probed.)
Sequence of Cyclin-dependent kinase 1 (P06493 whole entry): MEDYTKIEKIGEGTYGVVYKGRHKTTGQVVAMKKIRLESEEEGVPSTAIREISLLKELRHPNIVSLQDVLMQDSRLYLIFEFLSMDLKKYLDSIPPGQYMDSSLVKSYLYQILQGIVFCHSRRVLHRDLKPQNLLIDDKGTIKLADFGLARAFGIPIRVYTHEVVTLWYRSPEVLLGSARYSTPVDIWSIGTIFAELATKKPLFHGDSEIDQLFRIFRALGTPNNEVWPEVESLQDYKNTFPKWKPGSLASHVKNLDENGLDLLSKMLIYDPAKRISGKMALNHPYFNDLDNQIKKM

In the case of `C[C@@H]1CCC[C@H]1N1C(=O)C2(CC2)c2cnc(Nc3ccc(S(=O)(=O)N[C@@H]4CCCN(C)C4)cc3)nc21`, the Ratio IC50 in data set [1] was 100; in data set [3] it was 9; in data set [4] it was 8. Further, the IC50 in data set [2] stood at 0.32 nM; in data set [6], 44 nM. Further, in data set [5], the predicted hepatic clearance at 1 µM was > 18.3 mL/min/kg.

As for `CS(=O)(=O)N1CCC(Nc2ncc3c(n2)N(C2CCOCC2)C(=O)C32CC2)CC1`, in data set [2], the IC50 is 2200 nM.

Take `CNS(=O)(=O)c1ccc(Nc2ncc3c(n2)N([C@@H]2CCC[C@@H](O)C2)C(=O)C32CC2)cc1`: the Ratio IC50 turned out to be 8200 in [7]; 1200 in data set [1]; 230 in [3]; 1000 in data set [4]; 1200 in data set [8]; 230 in [9]. Further, the Ratio IC50 in data set [10] is 17000; in [11] it was 770. Besides, the IC50 came out at 0.25 nM in data set [2] and 670 nM in data set [6]. For the same compound, in data set [5], the predicted hepatic clearance at 1 µM was 13.3 mL/min/kg.

With `CS(=O)(=O)N1CCC(Nc2ncc3c(n2)N(CC(F)F)C(=O)C32CC2)CC1`, in [2], the IC50 is 875 nM.

On to `CS(=O)(=O)N1CCC(Nc2ncc3c(n2)N(c2ccccc2)C(=O)C32CC2)CC1`, for which, in [2], the half-inhibitory concentration (IC50) was determined as 1610 nM.

With `Cn1cc(S(=O)(=O)N2CCC(Nc3ncc4c(n3)N(C3CCCC3)C(=O)C43CC3)CC2)cn1`, the IC50 in data set [2] amounted to 17 nM; in [13], 1280 nM. In [12], the Ratio IC50 was 75.

In the case of `CCC1(C)C(=O)N(C2CCCC2)c2nc(NC3CCN(S(C)(=O)=O)CC3)ncc21` (stereo not given), the IC50 was 557 nM in [2] and > 5000 nM in [13].

Consider `C[C@@H]1CCC[C@H]1N1C(=O)C2(CC2)c2cnc(Nc3ccc(S(=O)(=O)NCCO)cc3)nc21` (relative stereo), for which the Ratio IC50 was 250 in data set [1], 28 in [3] and 29 in [4]. In addition, the IC50 was found to be 1.8 nM in data set [2] and 770 nM in data set [6]. Further, in data set [5], the predicted hepatic clearance at 1 µM is > 18.3 mL/min/kg.

As for `CNS(=O)(=O)c1ccc(Nc2ncc3c(n2)N([C@H]2CCC[C@@H]2C)C(=O)C32CC2)cc1` (relative stereo), the Ratio IC50 came to 890 in data set [1], 48 in [3] and 33 in data set [4]. The IC50 amounted to 0.33 nM in data set [2] and 230 nM in data set [6]. Besides, in data set [5], the predicted hepatic clearance at 1 µM is 18.3 mL/min/kg.

For the compound `CS(=O)(=O)N1CCC(Nc2ncc3c(n2)N(C2CCCCC2)C(=O)C32CC2)CC1`, the 50% inhibitory concentration (IC50) was 82 nM in [2] and > 5000 nM in [13].

With `CN1Cc2cnc(Nc3ccc(S(N)(=O)=O)cc3)nc2C(C)(C)C1=O`, the IC50 in data set [2] was 161 nM; in data set [13], > 5000 nM.

Take `C[C@H]1CCC[C@@H]1N1C(=O)C2(CC2)c2cnc(NC3CCN(S(C)(=O)=O)CC3)nc21` (mixture of isomers): the IC50 in data set [2] was 7 nM; in [13] it was 540 nM. In addition, the Ratio IC50 in data set [12] stood at 77.

As to `CC1(C)Cc2cnc(Nc3ccc(S(N)(=O)=O)cc3)nc2N(C2CCCC2)C1=O`, the 50% inhibitory concentration (IC50) in [2] is 5 nM; in data set [13], 170 nM.

Regarding `CNS(=O)(=O)c1ccc(Nc2ncc3c(n2)N([C@@H](C)C2CC2)C(=O)C32CC2)cc1`, the Ratio IC50 in data set [1] amounted to 480; in [3], 24; in data set [4] it was 29. Also, the half-maximal inhibitory concentration (IC50) stood at 1.6 nM in data set [2] and 460 nM in [6]. Besides, the predicted hepatic clearance at 1 µM in [5] was 11.7 mL/min/kg.

With `CS(=O)(=O)N1CCC(Nc2ncc3c(n2)N(C2CCCC2)C(=O)C32CC2)CC1`, the 50% inhibitory concentration (IC50) in data set [2] was 102 nM; in [14] it was > 5 µM; in data set [13] it was > 5000 nM.

For `Cc1nn2cnc3[nH]ccc3c2c1C1CCCCC1`, in data set [2], the IC50 stood at 2800 nM.

For `CNS(=O)(=O)c1ccc(Nc2ncc3c(n2)N(c2cc(F)ccc2Cl)C(=O)C32CC2)cc1`, the Ratio IC50 in [1] came to 1900; in data set [3], 120; in data set [4], 58. The concentration for half-maximal inhibition (IC50) in data set [2] was determined as 0.62 nM; in data set [6], 460 nM. The predicted hepatic clearance at 1 µM in data set [5] was 15 mL/min/kg.

In the case of `CC[C@@H](C(F)F)N1C(=O)C2(CC2)c2cnc(NC3CCN(S(C)(=O)=O)CC3)nc21`, the 50% inhibitory concentration (IC50) in data set [2] worked out at 23 nM; in data set [13], 1690 nM. The Ratio IC50 in data set [12] worked out at 74.

For the compound `Cc1nn(C)cc1-c1ccnc(Nc2ccc(S(=O)(=O)N3CCOCC3)cc2)n1`, in [2], the concentration for half-maximal inhibition (IC50) came out at 431 nM.

Regarding `CC1(C)C(=O)N(C2CCCC2)c2nc(NC3CCN(S(C)(=O)=O)CC3)ncc21`, the results for the IC50 in data set [2] and in data set [13] were 87 nM and > 5000 nM, respectively.

`CS(=O)(=O)N1CCC(Nc2ncc3c(n2)N(C2CCCC2)C(=O)C32CCC2)CC1`: the values for the IC50 in data set [2] and in [13] were 236 nM and > 5000 nM, respectively.
